Measured values taken from patent publication US20200405671A1, “METHODS AND MATERIALS FOR TREATING POLYCYSTIC KIDNEY DISEASE” (Mayo Foundation for Medical Education and Research, priority 2019, published 2020).
Entries after “also recorded” stand apart in the source; their conditions may differ.

Assays:
Pkd1^RC/RC mice [1] = experiment: Intrarenal microvasculature quantified using a capillary index; format: in vivo; conditions: 6 months of age
Description: (§1) One month old Pkd1^RC/RC mice were divided into three groups and started treatment with regular water or regular water supplemented with 1% or 2% betaine (FIG. 2) for 5 months (n=16 per group). All mice were euthanized at 6 months of age, and kidneys harvested. Cystic index was determined from histological sections. 1H-NMR-based metabolomics analysis was performed from tissue urine and plasma samples.
Intrarenal microvasculature was quantified using a capillary index. Capillaries in the cortex were identified by the presence of lumen, red blood cells, and/or an endothelial cell lining. For the PKD animals, the number of capillaries is calculated adjusting for the cystic area.

[2] = 1H-NMR-based analysis of plasma and tissue betaine concentration after betaine supplementation; format: in vivo; conditions: Pkd1^RC/RC mice, vs no betaine, p<0.001; for tissue betaine concentration: kidney tissue
Description: as §1

Pkd1^RC/RC mice [3] = experiment: Blood pressure (MAP) by tail cuff, CODA non-invasive blood pressure system; format: in vivo; conditions: compared with wild type (WT) animals
Description: as §1
Blood pressure was determined during the same time frame (9-11 am) in all animals in all groups, using the CODA non-invasive blood pressure system (Kent Scientific). Briefly, mice were guided into a plastic mouse holder and were left to acclimate to the holder for 5 minutes. Ten blood pressure (BP) measurements within 10 minutes were obtained by tail cuff.

[4] = 1HNMR spectroscopy of stability of betaine in water; format: physicochemical; conditions: 1% and 2% betaine in water, day 0, day 2 and day 8 (course of one week)
Description: FIG. 2: ^1HNMR spectroscopy depicting stability of betaine in water during the course of 1 week. Three spectral lines on top indicating 2% betaine represent betaine concentration as determined by ^1HNMR spectroscopy at day 0, day, 2 and day 8. Below, three spectral lines indicating 1% betaine represent betaine concentration as determined by ^1HNMR spectroscopy at day 0, day, 2 and day 8. At the bottom, flat spectra can be seen for the animals receiving control water without betaine, indicated as control day 2 and 8. Overall, betaine was stable and non-significant changes in betaine concentration were observed during the course of one week.

Pkd1^RC/RC mice [5] = experiment: Betaine supplementation in drinking water in Pkd1^RC/RC mice: kidney/body weight and cystic index from histological sections; format: in vivo; conditions: p<0.01; for kidney/body weight: euthanized at 6 months of age, no betaine 2.25; for cystic index (percentage of cyst area within the total kidney section): no betaine 21.1%
Description: as §1

[6] = 1% betaine in drinking water for 5 months
[7] = 2% betaine in drinking water for 5 months

Compound: C[N+](C)(C)CC(=O)[O-] [betaine, trimethylglycine]
- capillary count (intrarenal microvasculature) (Pkd1^RC/RC mice [1]; 1% betaine, female animals): not effective
- capillary count (intrarenal microvasculature) (Pkd1^RC/RC mice [1]; 1% betaine, male animals): preserved the capillary count
- capillary count (intrarenal microvasculature) (Pkd1^RC/RC mice [1]; 2% betaine, female animals): preserved capillary count
- capillary count (intrarenal microvasculature) (Pkd1^RC/RC mice [1]; 2% betaine, male animals): preserved the capillary count
- tissue betaine concentration ([2]; 1% betaine in drinking water): significant increases; also recorded: increased
- plasma betaine concentration ([2]; 1% betaine in drinking water): increased
- tissue betaine concentration ([2]; 2% betaine in drinking water): significant increases; also recorded: increased
- plasma betaine concentration ([2]; 2% betaine in drinking water): increased
- Mean Arterial Pressure (MAP) (Pkd1^RC/RC mice [3]; 1% betaine): preserved MAP within WT levels
- Mean Arterial Pressure (MAP) (Pkd1^RC/RC mice [3]; 2% betaine): preserved MAP within WT levels
- stability of betaine in water (betaine concentration) [4]: stable
- kidney/body weight (Pkd1^RC/RC mice [5]; [6]): 1.82
- cystic index (percentage of cyst area within the total kidney section) (Pkd1^RC/RC mice [5]; [6]): 11.1%
- kidney/body weight (Pkd1^RC/RC mice [5]; [7]): 1.85
- cystic index (percentage of cyst area within the total kidney section) (Pkd1^RC/RC mice [5]; [7]): 9.4%
